{"source": "patent EP2768830B1", "about": "“APOPTOSIS-INDUCING AGENTS FOR THE TREATMENT OF CANCER AND IMMUNE AND AUTOIMMUNE DISEASES” (AbbVie Inc., priority 2011, dated 2013)", "key": {"[1]": {"test_system": "mouse FL5.12 cells transfected with Bcl-XL", "assay": "FL5.12 cellular assay (cell viability, CellTiter-Glo);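 further: each EC50 determination derived from duplicate measurements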", "format": "cell-based", "conditions": "FL5.12 cells transfected with Bcl-XL, IL-3-depleted, 3% FBS assay media, 24 hours, CellTiter-Glo, read-out: FL5.12 Bcl-xL, - IL3, EC 50"}, "[2]": {"molecular_target": "GST-Bcl-xL (Homo sapiens, UniProt Q07817)", "sequence (Q07817 whole entry)": "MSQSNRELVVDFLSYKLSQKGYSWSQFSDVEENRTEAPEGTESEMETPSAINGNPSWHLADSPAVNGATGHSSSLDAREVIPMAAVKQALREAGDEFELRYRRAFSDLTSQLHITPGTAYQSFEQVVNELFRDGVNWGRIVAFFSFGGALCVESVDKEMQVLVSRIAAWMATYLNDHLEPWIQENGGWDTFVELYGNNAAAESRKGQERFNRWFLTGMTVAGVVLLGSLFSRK", "conditions": "read-out: TR-FRET binding Bcl-xL Ki"}}, "note": "pEC50, pKi: −log10 of the molar value. Like-named read-outs stand apart in the source and are kept apart here.", "data": [{"smiles": "CN(C)CC#Cc1ccccc1Cn1cc(-c2ccc(N3CCc4cccc(C(=O)Nc5nc6ccccc6s5)c4C3)nc2C(=O)O)cn1", "note": "[Example 51, 6-[8-(1,3-benzothiazol-2-ylcarbamoyl)-3,4-dihydroisoquinolin-2(1H)-yl]-3-(1-{2-[3-(dimethylamino)prop-1-yn-1-yl]benzyl}-1H-pyrazol-4-yl)pyridine-2-carboxylic acid]", "values": [{"measurement": "pEC50", "setting": "[1]; Mus musculus", "result": "< 6.00"}, {"measurement": "pKi", "setting": "[2]", "result": 6.91}]}, {"smiles": "O=C(Nc1nc2ccccc2s1)c1cccc2c1CN(c1ccc(-c3cnn(Cc4ccc(F)c([N+](=O)[O-])c4)c3)c(C(=O)O)n1)CC2", "note": "[Example 45, 6-[8-(1,3-benzothiazol-2-ylcarbamoyl)-3,4-dihydroisoquinolin-2(1H)-yl]-3-[1-(4-fluoro-3-nitrobenzyl)-1H-pyrazol-4-yl]pyridine-2-carboxylic acid]", "values": [{"measurement": "pEC50", "setting": "[1]; Mus musculus", "result": "< 6.00"}, {"measurement": "pKi", "setting": "[2]", "result": 7.72}]}, {"smiles": "COCCOc1ccccc1Cn1ncc(-c2ccc(N3CCc4cccc(C(=O)Nc5nc6ccccc6s5)c4C3)nc2C(=O)O)c1C", "note": "[Example 89, 6-[8-(1,3-benzothiazol-2-ylcarbamoyl)-3,4-dihydroisoquinolin-2(1H)-yl]-3-{1-[2-(2-methoxyethoxy)benzyl]-5-methyl-1H-pyrazol-4-yl}pyridine-2-carboxylic acid]", "values": [{"measurement": "pEC50", "setting": "[1]; Mus musculus", "result": 7.64}, {"measurement": "pKi", "setting": "[2]", "result": 9.30}]}, {"smiles": "Cc1c(-c2ccc(N3CCc4cccc(C(=O)Nc5nc6ccccc6s5)c4C3)nc2C(=O)O)cc(C#N)n1CC1CCCCC1", "note": "[Example 130, 6-[8-(1,3-benzothiazol-2-ylcarbamoyl)-3,4-dihydroisoquinolin-2(1H)-yl]-3-[5-cyano-1-(cyclohexylmethyl)-2-methyl-1H-pyrrol-3-yl]pyridine-2-carboxylic acid]", "values": [{"measurement": "pEC50", "setting": "[1]; Mus musculus", "result": 7.52}, {"measurement": "pKi", "setting": "[2]", "result": "> 10.00"}]}, {"smiles": "O=C(Nc1nc2ccccc2s1)c1cccc2c1CN(c1ccc(-c3cnn(C4CCOc5ccccc54)c3)c(C(=O)O)n1)CC2", "note": "(stereo not drawn) [Example 39, 6-[8-(1,3-benzothiazol-2-ylcarbamoyl)-3,4-dihydroisoquinolin-2(1H)-yl]-3-[1-(3,4-dihydro-2H-chromen-4-yl)-1H-pyrazol-4-yl]pyridine-2-carboxylic acid]", "values": [{"measurement": "pEC50", "setting": "[1]; Mus musculus", "result": "< 6.00"}, {"measurement": "pKi", "setting": "[2]", "result": 7.25}]}, {"smiles": "O=C(Nc1nc2ccccc2s1)c1cccc2c1CN(c1ccc(-c3cnn(Cc4ccccc4[N+](=O)[O-])c3)c(C(=O)O)n1)CC2", "note": "[Example 57, 6-[8-(1,3-benzothiazol-2-ylcarbamoyl)-3,4-dihydroisoquinolin-2(1H)-yl]-3-[1-(2-nitrobenzyl)-1H-pyrazol-4-yl]pyridine-2-carboxylic acid]", "values": [{"measurement": "pEC50", "setting": "[1]; Mus musculus", "result": 6.13}, {"measurement": "pKi", "setting": "[2]", "result": 7.85}]}, {"smiles": "Cc1c(-c2ccc(N3CCc4cccc(C(=O)Nc5nc6ccccc6s5)c4C3)nc2C(=O)O)cnn1CC1(OCCN2CCS(=O)(=O)CC2)CCCCC1", "note": "[Example 167, 6-[8-(1,3-benzothiazol-2-ylcarbamoyl)-3,4-dihydroisoquinolin-2(1H)-yl]-3-[1-({1-[2-(1,1-dioxidothiomorpholin-4-yl)ethoxy]cyclohexyl}methyl)-5-methyl-1H-pyrazol-4-yl]pyridine-2-carboxylic acid]", "values": [{"measurement": "pEC50", "setting": "[1]; Mus musculus", "result": 7.09}, {"measurement": "pKi", "setting": "[2]", "result": "> 10.00"}]}, {"smiles": "O=C(Nc1nc2ccccc2s1)c1cccc2c1CN(c1ccc(-c3cccc(OC4CCCCC4)c3C(F)(F)F)c(C(=O)O)n1)CC2", "note": "[Example 120, 6-[8-(1,3-benzothiazol-2-ylcarbamoyl)-3,4-dihydroisoquinolin-2(1H)-yl]-3-[3-(cyclohexyloxy)-2-(trifluoromethyl)phenyl]pyridine-2-carboxylic acid]", "values": [{"measurement": "pEC50", "setting": "[1]; Mus musculus", "result": 6.07}, {"measurement": "pKi", "setting": "[2]", "result": 9.40}]}, {"smiles": "O=C(Nc1nc2cccc(Cl)c2s1)c1cccc2c1CN(c1ccc(-c3cnn(Cc4ccccc4)c3)c(C(=O)O)n1)CC2", "note": "[Example 21, 3-(1-benzyl-1H-pyrazol-4-yl)-6-{8-[(7-chloro-1,3-benzothiazol-2-yl)carbamoyl]-3,4-dihydroisoquinolin-2(1H)-yl}pyridine-2-carboxylic acid]", "values": [{"measurement": "pEC50", "setting": "[1]", "result": "< 6.00"}, {"measurement": "pKi", "setting": "[2]", "result": 6.74}]}, {"smiles": "N#Cc1cccc(Cn2cc(-c3ccc(N4CCc5cccc(C(=O)Nc6nc7ccccc7s6)c5C4)nc3C(=O)O)cn2)c1", "note": "[Example 24, 6-[8-(1,3-benzothiazol-2-ylcarbamoyl)-3,4-dihydroisoquinolin-2(1H)-yl]-3-[1-(3-cyanobenzyl)-1H-pyrazol-4-yl]pyridine-2-carboxylic acid]", "values": [{"measurement": "pEC50", "setting": "[1]", "result": "< 6.00"}, {"measurement": "pKi", "setting": "[2]", "result": 7.19}]}, {"smiles": "Cc1c(NC2CCCCC2)cccc1-c1ccc(N2CCc3cccc(C(=O)Nc4nc5ccccc5s4)c3C2)nc1C(=O)O", "note": "[Example 118, 6-[8-(1,3-benzothiazol-2-ylcarbamoyl)-3,4-dihydroisoquinolin-2(1H)-yl]-3-[3-(cyclohexylamino)-2-methylphenyl]pyridine-2-carboxylic acid]", "values": [{"measurement": "pEC50", "setting": "[1]; Mus musculus", "result": 6.44}, {"measurement": "pKi", "setting": "[2]", "result": 9.70}]}, {"smiles": "Cc1c(-c2ccc(N3CCc4cccc(C(=O)Nc5nc6ccccc6s5)c4C3)nc2C(=O)O)cc(C(=O)O)n1Cc1ccccc1", "note": "[Example 124, 6-[8-(1,3-benzothiazol-2-ylcarbamoyl)-3,4-dihydroisoquinolin-2(1H)-yl]-3-(1-benzyl-5-carboxy-2-methyl-1H-pyrrol-3-yl)pyridine-2-carboxylic acid]", "values": [{"measurement": "pEC50", "setting": "[1]; Mus musculus", "result": 7.24}, {"measurement": "pKi", "setting": "[2]", "result": "> 10.00"}]}, {"smiles": "O=C(Nc1nc2ccccc2s1)c1cccc2c1CN(c1ccc(-c3cnn(CC4CCCCC4)c3)c(C(=O)O)n1)CC2", "note": "[Example 42, 6-[8-(1,3-benzothiazol-2-ylcarbamoyl)-3,4-dihydroisoquinolin-2(1H)-yl]-3-[1-(cyclohexylmethyl)-1H-pyrazol-4-yl]pyridine-2-carboxylic acid]", "values": [{"measurement": "pEC50", "setting": "[1]; Mus musculus", "result": 6.63}, {"measurement": "pKi", "setting": "[2]", "result": 8.70}]}, {"smiles": "O=C(Nc1nc2ccccc2s1)c1cccc2c1CN(c1ccc(-c3ccnc(Oc4ccccc4)c3)c(C(=O)O)n1)CC2", "note": "[Example 140, 6-[8-(1,3-benzothiazol-2-ylcarbamoyl)-3,4-dihydroisoquinolin-2(1H)-yl]-2'-phenoxy-3,4'-bipyridine-2-carboxylic acid]", "values": [{"measurement": "pEC50", "setting": "[1]; Mus musculus", "result": "< 6.00"}, {"measurement": "pKi", "setting": "[2]", "result": 8.64}]}, {"smiles": "O=C(Nc1nc2ccccc2s1)c1cccc2c1CN(c1ccc(-c3cccc4c3cnn4Cc3ccccc3)c(C(=O)O)n1)CC2", "note": "[Example 187, 6-[8-(1,3-benzothiazol-2-ylcarbamoyl)-3,4-dihydroisoquinolin-2(1H)-yl]-3-(1-benzyl-1H-indazol-4-yl)pyridine-2-carboxylic acid]", "values": [{"measurement": "pEC50", "setting": "[1]; Mus musculus", "result": 6.50}, {"measurement": "pKi", "setting": "[2]", "result": 9.40}]}, {"smiles": "O=C(Nc1nc2ccccc2s1)c1cccc2c1CN(c1ccc(-c3cnn(Cc4cc(F)cc(F)c4)c3)c(C(=O)O)n1)CC2", "note": "[Example 53, 6-[8-(1,3-benzothiazol-2-ylcarbamoyl)-3,4-dihydroisoquinolin-2(1H)-yl]-3-[1-(3,5-difluorobenzyl)-1H-pyrazol-4-yl]pyridine-2-carboxylic acid]", "values": [{"measurement": "pEC50", "setting": "[1]", "result": 6.41}, {"measurement": "pKi", "setting": "[2]", "result": 7.85}]}, {"smiles": "CN(C)CCCNc1ccc(Cn2cc(-c3ccc(N4CCc5cccc(C(=O)Nc6nc7ccccc7s6)c5C4)nc3C(=O)O)cn2)cc1[N+](=O)[O-]", "note": "[Example 44, 6-[8-(1,3-benzothiazol-2-ylcarbamoyl)-3,4-dihydroisoquinolin-2(1H)-yl]-3-[1-(4-{[3-(dimethylamino)propyl]amino}-3-nitrobenzyl)-1H-pyrazol-4-yl]pyridine-2-carboxylic acid]", "values": [{"measurement": "pEC50", "setting": "[1]; Mus musculus", "result": "< 6.00"}, {"measurement": "pKi", "setting": "[2]", "result": 7.77}]}, {"smiles": "O=C(Nc1nc2ccccc2s1)c1cccc2c1CN(c1ccc(-c3cnn(Cc4ccccn4)c3)c(C(=O)O)n1)CC2", "note": "[Example 26, 6-[8-(1,3-benzothiazol-2-ylcarbamoyl)-3,4-dihydroisoquinolin-2(1H)-yl]-3-[1-(pyridin-2-ylmethyl)-1H-pyrazol-4-yl]pyridine-2-carboxylic acid]", "values": [{"measurement": "pEC50", "setting": "[1]", "result": "< 6.00"}, {"measurement": "pKi", "setting": "[2]", "result": 6.78}]}, {"smiles": "O=C(Nc1nc2ccccc2s1)c1cccc2c1CN(c1ccc(-c3cnn(Cc4ccccc4O)c3)c(C(=O)O)n1)CC2", "note": "[Example 36, 6-[8-(1,3-benzothiazol-2-ylcarbamoyl)-3,4-dihydroisoquinolin-2(1H)-yl]-3-[1-(2-hydroxybenzyl)-1H-pyrazol-4-yl]pyridine-2-carboxylic acid]", "values": [{"measurement": "pEC50", "setting": "[1]; Mus musculus", "result": "< 6.00"}, {"measurement": "pKi", "setting": "[2]", "result": 8.10}]}, {"smiles": "O=C(Nc1nc2ccccc2s1)c1cccc2c1CN(c1ccc(-c3cnn(Cc4ccccc4-c4ccccc4)c3)c(C(=O)O)n1)CC2", "note": "[Example 62, 6-[8-(1,3-benzothiazol-2-ylcarbamoyl)-3,4-dihydroisoquinolin-2(1H)-yl]-3-[1-(biphenyl-2-ylmethyl)-1H-pyrazol-4-yl]pyridine-2-carboxylic acid]", "values": [{"measurement": "pEC50", "setting": "[1]; Mus musculus", "result": "< 6.00"}, {"measurement": "pKi", "setting": "[2]", "result": 7.21}]}, {"smiles": "Cc1noc(-c2cccc(Cn3cc(-c4ccc(N5CCc6cccc(C(=O)Nc7nc8ccccc8s7)c6C5)nc4C(=O)O)cn3)c2)n1", "note": "[Example 29, 6-[8-(1,3-benzothiazol-2-ylcarbamoyl)-3,4-dihydroisoquinolin-2(1H)-yl]-3-{1-[3-(3-methyl-1,2,4-oxadiazol-5-yl)benzyl]-1H-pyrazol-4-yl}pyridine-2-carboxylic acid]", "values": [{"measurement": "pEC50", "setting": "[1]; Mus musculus", "result": "< 6.00"}, {"measurement": "pKi", "setting": "[2]", "result": 7.74}]}, {"smiles": "Cc1cc(Oc2ccccc2)ccc1-c1ccc(N2CCc3cccc(C(=O)Nc4nc5ccccc5s4)c3C2)nc1C(=O)O", "note": "[Example 111, 6-[8-(1,3-benzothiazol-2-ylcarbamoyl)-3,4-dihydroisoquinolin-2(1H)-yl]-3-(2-methyl-4-phenoxyphenyl)pyridine-2-carboxylic acid]", "values": [{"measurement": "pEC50", "setting": "[1]; Mus musculus", "result": "< 6.00"}, {"measurement": "pKi", "setting": "[2]", "result": 7.68}]}, {"smiles": "O=C(Nc1nc2ccccc2s1)c1cccc2c1CN(c1ccc(-c3cnn(Cc4cccc(C(F)(F)F)c4)c3)c(C(=O)O)n1)CC2", "note": "[Example 61, 6-[8-(1,3-benzothiazol-2-ylcarbamoyl)-3,4-dihydroisoquinolin-2(1H)-yl]-3-{1-[3-(trifluoromethyl)benzyl]-1H-pyrazol-4-yl}pyridine-2-carboxylic acid]", "values": [{"measurement": "pEC50", "setting": "[1]; Mus musculus", "result": 6.42}, {"measurement": "pKi", "setting": "[2]", "result": 7.96}]}, {"smiles": "CCOC(=O)c1cc(-c2ccc(N3CCc4cccc(C(=O)Nc5nc6ccccc6s5)c4C3)nc2C(=O)O)c(C)n1Cc1ccccc1", "note": "[Example 123, 6-[8-(1,3-benzothiazol-2-ylcarbamoyl)-3,4-dihydroisoquinolin-2(1H)-yl]-3-[1-benzyl-5-(ethoxycarbonyl)-2-methyl-1H-pyrrol-3-yl]pyridine-2-carboxylic acid]", "values": [{"measurement": "pEC50", "setting": "[1]; Mus musculus", "result": 7.80}, {"measurement": "pKi", "setting": "[2]", "result": "> 10.00"}]}]}
